Assay results: patent US20050261290A1, “Novel compounds of proline and morpholine derivatives” (priority 2004, published 2005)
Like-named read-outs stand apart in the source and are kept apart here.

Target: human 11b-hsd-1 (Homo sapiens, UniProt P28845)
Experiment: Inhibition constant Ki of human 11b-hsd-1 (3H-cortisone to 3H-cortisol conversion, HPLC)
Assay type: biochemical
Conditions: for Ki: apparent Ki, read-out: Ki app
Description: In each well, varying amounts of compounds are incubated with a fixed amount of 11b-hsd-1 (4 nM) and NADPH (500 μM) for 30 to 40 min at room temperature in the assay buffer. The enzyme concentration was determined by titration using reversible tight-binding inhibitors. […] The area of 3H-cortisol is calculated and plotted versus time to determine a linear velocity. […] Where vi, and vo are the rates of cortisol formation in the presence and in the absence of inhibitor, respectively, I is the inhibitor concentration and E is the 11 b-hsd-1 concentration in the assay buffer. […] NADPH, Glucose-6-Phosphate (G6P), and Glucose-6-Phosphate dehydrogenase was purchased from Sigma.

Chain of human 11b-hsd-1 (P28845 whole entry): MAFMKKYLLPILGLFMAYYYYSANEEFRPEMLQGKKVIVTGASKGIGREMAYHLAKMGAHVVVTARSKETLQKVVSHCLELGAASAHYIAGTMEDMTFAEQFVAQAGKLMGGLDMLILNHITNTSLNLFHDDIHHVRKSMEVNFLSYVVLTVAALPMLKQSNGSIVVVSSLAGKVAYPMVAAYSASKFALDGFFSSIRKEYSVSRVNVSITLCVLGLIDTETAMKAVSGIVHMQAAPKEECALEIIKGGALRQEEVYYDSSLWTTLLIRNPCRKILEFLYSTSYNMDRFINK

Cc1ccc(CNC(=O)[C@H]2CCCN2CC(C)C)cc1 [Example 259]
inhibition at 0.1 µM (0.1 μM compound): 100%
Ki: 11 nM

CC[C@H]1CCN[C@@H]1C(=O)NC1C2CC3CC(C2)CC1C3 (some centres unmarked) [Example 345]
inhibition at 0.1 µM (0.1 μM compound): 76.5%
Ki: 27 nM

O=C(NC1CCCCC1)[C@H]1C[C@@H](O)CN1CC1CCCC1 [Example 30]
inhibition at 0.1 µM (compound at 0.1 μM): 63%

CC(C)CN1CCC[C@@H]1C(=O)NCc1c(F)cccc1F [Example 239]
inhibition at 0.1 µM (0.1 μM compound): 97.6%
Ki: 5.62 nM

O=C(N[C@@H]1CCCc2ccccc21)[C@H]1COCCN1CC1CCCC1 [Example 318]
inhibition at 0.1 µM (0.1 μM compound): 84.8%
Ki: 13 nM

CC1(C)CC(NC(=O)C2COCCN2CC2CCCC2)CC(C)(C)C1 (centres unmarked) [Example 190]
Ki (human 11b-hsd-1): 1.1 nM
inhibition at 0.1 µM (compound at 0.1 μM): 100%

O=C(NC1Cc2ccccc2C1)[C@H]1CCCN1CC1CCCC1 [Example 294]
inhibition at 0.1 µM (0.1 μM compound): 100%
Ki: 8.52 nM

O=C(NC1CCCCC1)[C@H]1CCCN1CC1CCCO1 (some centres unmarked) [Example 97]
Ki (human 11b-hsd-1): 7 nM
% inh @ 0.1 μM (compound at 0.1 μM, 0.1 µM): 100%

Cc1ccccc1CNC(=O)[C@H]1CCCN1CCc1ccccc1 [Example 270]
inhibition at 0.1 µM (0.1 μM compound): 84.7%
Ki: 35 nM

CC(C)N1CCC(CN2C[C@H](O)C[C@@H]2C(=O)NC2C3CC4CC(C3)CC2C4)CC1 (some centres unmarked) [Example 76]
inhibition at 0.1 µM (compound at 0.1 μM): 14%

N#Cc1ccc(CN2CCOC[C@@H]2C(=O)NCC2CCCCC2)cc1 [Example 334]
inhibition at 0.1 µM (0.1 μM compound): 100%
Ki: 2.4 nM

CCN1CCC[C@@H]1C(=O)NC12CC3CC(CC(C3)C1)C2 [Example 23]
Ki (human 11b-hsd-1): 2.6 nM
inhibition at 0.1 µM (compound at 0.1 μM): 94%

O=C(NCc1ccc(F)cc1)[C@H]1CCCN1Cc1ccccc1 [Example 214]
inhibition at 0.1 µM (0.1 μM compound): 82.7%
Ki: 59 nM

CC(C)CN1CCOC[C@@H]1C(=O)N(C)C1CCCCC1 [Example 333]
inhibition at 0.1 µM (0.1 μM compound): 100%
Ki: 4 nM

CC(C)CN1CCCCC1C(=O)NC12CC3CC(CC(C3)C1)C2 (centres unmarked) [Example 206]
inhibition at 0.1 µM (0.1 μM compound): 100%
Ki: 5.2 nM

CCN1CCC[C@@H]1C(=O)NC1CCCCC1C (some centres unmarked) [Example 58]
Ki (human 11b-hsd-1): 28 nM
inhibition at 0.1 µM (compound at 0.1 μM): 70%

CCCN1CCOC[C@@H]1C(=O)NCC1CCCCC1 [Example 335]
inhibition at 0.1 µM (0.1 μM compound): 100%
Ki: 6.9 nM

CCOc1ccccc1CNC(=O)[C@H]1CCCN1CC1CCCC1 [Example 54]
Ki (human 11b-hsd-1): 13.2 nM
inhibition at 0.1 µM (compound at 0.1 μM): 94%

CCN1CCC[C@@H]1C(=O)NC1CCCCC1 [Example 84]
inhibition at 0.1 µM (compound at 0.1 μM): 62%

COc1ccccc1CNC(=O)[C@H]1CCCN1Cc1ccc(Cl)cc1 [Example 267]
inhibition at 0.1 µM (0.1 μM compound): 100%
Ki: 12 nM

O=C(NC1CCCCC1)[C@@H]1C[C@H](Oc2cc(F)ccc2F)CN1 [Example 371]
inhibition at 0.1 µM (0.1 μM compound): 86.2%

CCCN1CCC[C@@H]1C(=O)NC12CC3CC(CC(C3)C1)C2 [Example 21]
Ki (human 11b-hsd-1): 1.2 nM
inhibition at 0.1 µM (compound at 0.1 μM): 100%

O=C(N[C@H]1c2ccccc2C[C@H]1O)[C@H]1CCCN1CC1CCCC1 [Example 293]
inhibition at 0.1 µM (0.1 μM compound): 92.6%
Ki: 22.4 nM

O=C(NC1C2CC3CC(C2)CC1C3)[C@@H]1C[C@H](Oc2ccc(F)cc2)CN1 (some centres unmarked) [Example 321]
inhibition at 0.1 µM (0.1 μM compound): 100%
Ki: 1 nM

N#Cc1ccc(CN2CCOC[C@@H]2C(=O)NC2CCCCC2)cc1 [Example 306]
inhibition at 0.1 µM (0.1 μM compound): 100%
Ki: 4.9 nM

CCCN1CCOC[C@@H]1C(=O)NC1C2CC3CC(C2)CC1C3 (some centres unmarked) [Example 65]
Ki (human 11b-hsd-1): 2.6 nM
inhibition at 0.1 µM (compound at 0.1 μM): 100%

CC(C)CN1CCC[C@@H]1C(=O)NCc1ccc(Cl)cc1 [Example 221]
inhibition at 0.1 µM (0.1 μM compound): 95.7%
Ki: 5.9 nM

O=C(NCc1ccc(F)cc1F)[C@H]1CCCN1CCC(F)(F)F [Example 242]
inhibition at 0.1 µM (0.1 μM compound): 78.9%
Ki: 44 nM

CN(C)CCN1CCOC[C@@H]1C(=O)NC1C2CC3CC(C2)CC1C3 (stereo partly drawn) [Example 44, (3R)-N-2-adamantyl-4-[2-(dimethylamino)ethyl]morpholine-3-carboxamide]
inhibition at 0.1 µM (compound at 0.1 μM): 59.4%
